From patent publication US20110262556A1, “SILVER/WATER, SILVER GELS AND SILVER-BASED COMPOSITIONS; AND METHODS FOR MAKING AND USING THE SAME” (AMERICAN SILVER, LLC, priority 2005, published 2011) come the findings set out here.

Experiment [1] has as its system MRSA clinical isolate. In words: MIC, macrodilution broth.
The test system of experiment [2] is Escherichia coli MDR clinical isolate (stool). As to the kind of experiment: Antibiotic sensitivity, Kirby Bauer. The settings on record: for Zone size (mm): E.c, Kirby-Bauer antibiotic disc.
In experiment [3] the test system is Pseudomonas aeruginosa MDR clinical isolate (sputum). In words: Antibiotic sensitivity, Kirby Bauer. Particulars: for Zone size (mm): Ps., Kirby-Bauer antibiotic disc; for resistance of isolate: gram-negative isolate Pseudomonas.
Experiment [4] deals with S.typhi. In words: Zone of inhibition, agar well. Particulars: antibiotic amount (5-200 mcg).
Experiment [5] has as its system E. coil. As to the kind of experiment: Zone of inhibition, agar well. The settings on record: E.coli; antibiotic amount (5-200 mcg).
Experiment [6] has as its system MRSA clinical isolate (pus). As to the kind of experiment: Antibiotic sensitivity, Kirby Bauer. Particulars: for Zone size (mm): Kirby-Bauer antibiotic disc.
Experiment [7] concerns Ps. Aeruginosa. As to the kind of experiment: Zone of inhibition, agar well. The settings on record: antibiotic amount (5-200 mcg).
The test system of experiment [8] is S. aureus ATCC 6538 P. In words: Zone of inhibition, agar well. The settings on record: antibiotic amount (1-200 mcg).
For experiment [9], the system named is MRSA 2. In words: Zone of inhibition, agar well. The settings on record: antibiotic amount (1-200 mcg).
The subject of experiment [10] is MRSA 1. As to the kind of experiment: Zone of inhibition, agar well. The settings on record: antibiotic amount (1-200 mcg).
The test system of experiment [11] is B. subtilis. In words: Zone of inhibition, agar well. Particulars: antibiotic amount (1-200 mcg).
Experiment [12] deals with S. typhimurium. In words: MIC/MBC broth microdilution. It is filed as cell-based. (In general: Dilution methods test growth across graded concentrations, often in twofold steps.)
The test system of experiment [13] is E. aerogenes. As to the kind of experiment: MIC/MBC broth microdilution. In kind it is cell-based, Enterobacter aerogenes. The settings on record: E. aerogenes.
For experiment [14], the system named is K. pneumoniae. As to the kind of experiment: MIC/MBC broth microdilution. It is filed as cell-based, Klebsiella pneumoniae.
For experiment [15], the system named is S arizona. In words: MIC/MBC broth microdilution. It is filed as cell-based, Salmonella arizona.
Experiment [16] deals with S gordonii. In words: MIC/MBC broth microdilution. It is filed as cell-based, Streptococcus gordonii.
The subject of experiment [17] is S. mutans. As to the kind of experiment: MIC/MBC broth microdilution. In kind it is cell-based, Streptococcus mutans.
The subject of experiment [18] is E. cloacae. In words: MIC/MBC broth microdilution. It is filed as cell-based.
The subject of experiment [19] is S. pyogenes. In words: MIC/MBC broth microdilution. It is filed as cell-based, Streptococcus pyogenes.
The test system of experiment [20] is P. aeruginosa. In words: MIC/MBC broth microdilution. In kind it is cell-based, Pseudomonas aeruginosa.
Experiment [21] has as its system E. coli. In words: MIC/MBC broth microdilution. It is filed as cell-based, Escherichia coli.
The subject of experiment [22] is S. boydii. As to the kind of experiment: MIC/MBC broth microdilution. It is filed as cell-based, Shigella boydii.
Experiment [23] relates to S. aureus. In words: MIC/MBC broth microdilution. It is filed as cell-based, Staphylococcus aureus.
Experiment [24] concerns S. faecalis. In words: MIC/MBC broth microdilution. In kind it is cell-based, Streptococcus faecalis.
In experiment [25] the test system is S. pneumoniae. As to the kind of experiment: MIC/MBC broth microdilution. It is filed as cell-based.
In experiment [26] the test system is K. oxytoca. In words: MIC/MBC broth microdilution. It is filed as cell-based.
Experiment [27] has as its system Salmonella culture. Particulars: 5, 10 or 15 min. As to the method: (§1) Phenol Resistance. Five-one ml aliquots of each dilution of the test phenol were placed into sterile test tubes and allowed to equilibrate in a 20±2° C. water bath. At 30 second intervals, 0.5 ml of each challenge culture was added to the appropriate dilutions of phenol, agitated, and replaced into the water bath: After the appropriate exposure times of 5, 10, and 15 minutes, a loopful of suspension was removed from the assay tubes and transferred to tubes of letheen broth (LETH). The tubes of LETH were incubated at 37±2° C. for 2 days.

For experiment [28], the system named is Pseudomonas culture. The protocol:
as §1

Experiment [29] relates to Staphylococcus culture. The protocol: as §1
Experiment [30] has as its system Mycobacterium bovis BCG (TMC 1028). In kind it is cell-based.
Experiment [31] deals with K. pneumoniae. In words: Zone of inhibition, agar well. Particulars: antibiotic amount (5-200 mcg).

Values after ≈ are worked out from the molar mass of the structure shown. Where two headings read alike, the source gives them in different places.

As to `NCC[C@H](O)C(=O)N[C@@H]1C[C@H](N)[C@@H](O[C@H]2O[C@H](CN)[C@@H](O)[C@H](O)[C@H]2O)[C@H](O)[C@H]1O[C@H]1O[C@H](CO)[C@@H](O)[C@H](N)[C@H]1O` [Amikacin], the Growth entry in experiment [1] (Conc. 0.2 mcg/ml) is given as “+”; in [1] (Conc. 0.4 mcg/ml), “+”; in experiment [1] (Conc. 0.6 mcg/ml), “+”; in experiment [1] (Conc. 0.8 mcg/ml), “−”; in [1] (Conc. 1 mcg/ml), “−”; in experiment [1] (Conc. 2 mcg/ml), “−”. The Growth entry in experiment [1] (Conc. 3 mcg/ml), in experiment [1] (Conc. 4 mcg/ml) and in experiment [1] (Conc. 5 mcg/ml) was “−” each time. Besides, in [1] (Staphylococcus aureus, Nutrient Broth), the MIC was found to be 0.8 mg/L (≈ 1.37 µM). Also, the “Zone size (mm)” value in experiment [2] came out at 20 mm; in experiment [3], 9 mm; in experiment [6] it was 22 mm. In addition, the resistance of isolate entry in experiment [3] is recorded as “resistant”. Further, the “zone of inhibition, antibiotics” value in [4] and in [5] was “Clear” in each case.

Consider `CO/N=C(\C(=O)N[C@@H]1C(=O)N2C(C(=O)O)=CCS[C@H]12)c1csc(N)n1` [Ceftizoxime], for which the “zone of inhibition, antibiotics” value in experiment [7] is listed as “No inhibition”; in experiment [4], 15 mm; in [5], 18 mm.

As for `CC1=C(C(=O)O)N2C(=O)[C@@H](NC(=O)[C@H](N)c3ccccc3)[C@H]2SC1` [Cephalexin], the “zone of inhibition, antibiotics” value is on record as “Clear” in experiment [8], 0.8 mm in experiment [9], 1.0 mm in experiment [10] and “Clear” in [11].

For the compound `O=C(N[C@H](CO)[C@H](O)c1ccc([N+](=O)[O-])cc1)C(Cl)Cl` [Chloramphenicol], the “zone of inhibition, antibiotics” value in experiment [7] is recorded as “No inhibition”; in experiment [4] it was 23 mm; in experiment [5] it was 22 mm.

Consider `CC1(C)S[C@@H]2[C@H](NC(=O)Cc3ccccc3)C(=O)N2[C@H]1C(=O)O` [Penicillin G], for which the MIC was above 5.0 ppm in experiment [12] (S. typhimurium); above 5.0 ppm in [13]; above 5.0 ppm in experiment [14]; above 5.0 ppm in experiment [15]; 0.009 ppm in experiment [16] (S gordonii); 0.521 ppm in experiment [17]. In addition, the MIC in experiment [18] is given as above 5.0 ppm; in experiment [19] it was above 5.0 ppm; in [20], 0.13 ppm; in [21], above 5.0 ppm; in experiment [22] (S. boydii) it was above 5.0 ppm; in experiment [23] it was 2.5 ppm. The MIC is 5.0/>5.0 ppm in experiment [24], 0.019/0.019 ppm in [25] and above 5.0 ppm in [26] (K. oxytoca). The MBC in [16] (S gordonii) is on record as 0.039 ppm; in [17], above 5 ppm; in [20] it was above 5.0 ppm; in [23], above 5.0 ppm; in experiment [24] it was 5.0/>5.0 ppm; in experiment [25] it was 0.019/0.019 ppm.

For the compound `CC[C@H]1OC(=O)[C@H](C)[C@@H](O[C@H]2C[C@@](C)(OC)[C@@H](O)[C@H](C)O2)[C@H](C)[C@@H](O[C@@H]2O[C@H](C)C[C@H](N(C)C)[C@H]2O)[C@](C)(O)C[C@@H](C)/C(=N\OCOCCOC)[C@H](C)[C@@H](O)[C@]1(C)O` [Roxythromycin], the “zone of inhibition, antibiotics” value is “Clear” in experiment [8], 12 mm in experiment [9], 1.0 mm in experiment [10] and 20 mm in experiment [11].

As to `CN(C)[C@@H]1C(O)=C(C(N)=O)C(=O)[C@@]2(O)C(O)=C3C(=O)c4c(O)cccc4[C@@](C)(O)[C@H]3C[C@@H]12` [Tetracycline], the MBC in experiment [12] (Salmonella enterica, TYPHIMURIUM) is above 5 mg/L; in [14] (Klebsiella pneumoniae), above 5 mg/L; in experiment [15] (Salmonella, read-out: MBC) it was above 5 mg/L; in experiment [16] (Streptococcus gordonii, read-out: MBC), 0.625 mg/L (≈ 1.41 µM); in experiment [17] (Streptococcus mutans, read-out: MBC), above 5 mg/L; in experiment [18] (Enterobacter cloacae), above 5 mg/L. Also, the MBC in [19] (Streptococcus pyogenes, read-out: MBC) was above 5 mg/L; in experiment [20] (Pseudomonas aeruginosa, read-out: MBC), 5 mg/L (≈ 11.3 µM); in experiment [21] (Escherichia coli, read-out: MBC), above 5 mg/L; in [22] (Shigella boydii), above 5 mg/L; in experiment [23] (Staphylococcus aureus, read-out: MBC) it was above 5 mg/L; in experiment [24] (Enterococcus faecalis, read-out: MBC), above 5 mg/L. The MBC in experiment [25] (Streptococcus pneumoniae, read-out: MBC) is 0.625 mg/L (≈ 1.41 µM); in experiment [26] (Klebsiella oxytoca) it was above 5 mg/L. Further, the “zone of inhibition, antibiotics” value in experiment [8] is given as 34 mm; in experiment [9] it was 0.7 mm; in [7] it was “No inhibition”; in experiment [4], 16 mm; in experiment [5] it was 19 mm. Besides, the MIC in [13] (Klebsiella aerogenes, read-out: MIC) was above 5 mg/L; in experiment [14] (Klebsiella pneumoniae, read-out: MIC) it was 2.5 mg/L (≈ 5.63 µM); in experiment [15] (Salmonella, read-out: MIC) it was 0.625 mg/L (≈ 1.41 µM); in experiment [16] (Streptococcus gordonii, read-out: MIC), 0.156 mg/L (≈ 0.351 µM); in experiment [17] (Streptococcus mutans, read-out: MIC), 0.625 mg/L (≈ 1.41 µM); in experiment [18] (Enterobacter cloacae, read-out: MIC) it was 1.67 mg/L (≈ 3.76 µM). Also, the MIC in experiment [19] (Streptococcus pyogenes, read-out: MIC) is 0.625 mg/L (≈ 1.41 µM); in experiment [20] (Pseudomonas aeruginosa, read-out: MIC), 0.078 mg/L (≈ 0.176 µM); in experiment [21] (Escherichia coli, read-out: MIC), 1.67 mg/L (≈ 3.76 µM); in experiment [23] (Staphylococcus aureus, read-out: MIC), 0.313 mg/L (≈ 0.704 µM); in experiment [24] (Enterococcus faecalis, read-out: MIC) it was 0.313 mg/L (≈ 0.704 µM); in experiment [25] (Streptococcus pneumoniae, read-out: MIC), 0.078 mg/L (≈ 0.176 µM). In addition, in experiment [6], the “Zone size (mm)” value was found to be 27 mm.

For the compound `CC(C)(O/N=C(\C(=O)N[C@@H]1C(=O)N2C(C(=O)[O-])=C(C[n+]3ccccc3)CS[C@H]12)c1csc(N)n1)C(=O)O` [ceftazidime], the “Zone size (mm)” value came out at 10 mm in experiment [2] and 16 mm in experiment [3]. The resistance of isolate result in experiment [2] (gram-negative isolate E. coli) was “resistance”; in [3], “resistance”; in [6], “resistant”.

Consider `Oc1ccccc1` [phenol], for which the “growth after phenol treatment” value is reported as “no growth” in experiment [27] (1:90 phenol); “showed growth” in experiment [27] (1:100 phenol); “showed growth” in experiment [28] (1:80 phenol, 5 or 10 min); “no growth” in experiment [28] (1:80 phenol, 15 min); “showed growth” in experiment [28] (1:90 phenol, 5, 10 or 15 min); “showed growth” in [29] (1:60 phenol, 5 or 10 min). The “growth after phenol treatment” value in experiment [29] (1:60 phenol, 15 min) is reported as “no growth”; in experiment [29] (1:70 phenol, 5, 10 or 15 min) it was “showed growth”. In experiment [30], this compound had a log reduction of around 1.81.

For Co-Trimoxazole, the “zone of inhibition, antibiotics” value in experiment [8] is reported as “Clear”; in experiment [7], “Clear”; in experiment [4], 27 mm; in [31] it was 19 mm; in experiment [11] it was 15 mm; in experiment [5], 24 mm.

As to Gentamycin, the “zone of inhibition, antibiotics” value in experiment [8] is given as 1Clear; in experiment [9], 11 mm; in experiment [7], “No inhibition”; in experiment [4], “Clear”; in experiment [31] it was 17 mm; in [11], 18 mm. The “zone of inhibition, antibiotics” value in experiment [5] is “Clear”. Further, the “Zone size (mm)” value in [2] was 19 mm.
